34 compounds from patent US10738041B2, “Ferroportin inhibitors” (Vifor (International) AG, priority 2015, dated 2020) can be followed below.

One experiment concerns the target T1, ferroportin (Fpn) (Mus musculus, UniProt Q9JHI9).
T1 construct: host or cells: J774 mouse macrophage cell line, Fe(III)-NTA induced
T1 sequence (Q9JHI9 1-570): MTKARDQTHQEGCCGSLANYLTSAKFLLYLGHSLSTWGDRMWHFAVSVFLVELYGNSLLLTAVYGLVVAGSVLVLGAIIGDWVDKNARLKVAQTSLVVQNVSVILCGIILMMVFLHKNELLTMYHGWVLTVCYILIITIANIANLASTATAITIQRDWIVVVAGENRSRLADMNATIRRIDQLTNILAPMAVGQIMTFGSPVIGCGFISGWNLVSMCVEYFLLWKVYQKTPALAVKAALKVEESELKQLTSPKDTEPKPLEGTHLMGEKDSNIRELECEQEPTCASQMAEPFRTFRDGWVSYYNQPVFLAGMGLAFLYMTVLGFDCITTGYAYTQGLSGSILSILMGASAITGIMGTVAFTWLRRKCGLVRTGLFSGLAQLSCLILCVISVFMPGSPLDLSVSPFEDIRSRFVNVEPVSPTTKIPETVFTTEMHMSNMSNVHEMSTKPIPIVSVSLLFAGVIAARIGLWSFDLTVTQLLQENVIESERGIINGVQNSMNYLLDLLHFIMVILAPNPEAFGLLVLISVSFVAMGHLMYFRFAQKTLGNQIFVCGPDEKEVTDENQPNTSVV
The experiment is described as follows: Hepcidin Internalization Assay (J774). The format is cell-based. To be noted: average of multiple measurements; inhibition of TMR-hepcidin (25 nM) internalization into J774 cells; read-out: J774 IC50. From the text:
This cellular assay allows quantification of the binding of hepcidin to ferroportin (Fpn) through microscopic detection of internalization of a fluorescently labeled hepcidin into J774 cells. […] Binding of hepcidin to Fpn triggers internalization and degradation of both hepcidin and Fpn. However, the TMR (6-carboxytetramethylrhodamine) fluorophore attached to hepcidin remains associated with the cell after degradation of the hepcidin peptide backbone. Therefore, microscopic detection of ceH associated TMR fluorescence is a measure of hepcidin binding to Fpn and internalization of hepcidin and Fpn. If TMR-hepcidin is prevented from binding to Fpn, cellular TMR fluorescence remains low (Dürrenberger et al, 2013). The effect of small molecular weight Fpn inhibitor compounds in this assay was evaluated in vitro as described below.
J774 cells, harvested from ca. 80% confluent cultures, were plated at 8×10^5 cells/ml in complete medium (DMEM, 10% FBS, 1% Penicillin-Streptomycin) containing 200 μM Fe(III)NTA (nitrilotriacetic acid), 100 μl per well of 96 well MicroClear plates (Greiner; Cat. 655090) and grown at 37° C. with 5% CO2. After overnight incubation, cells were washed 3 times with pre-warmed DMEM w/o phenol red, 30 μl/well of DMEM w/o phenol red was added after the final wash and 10 μl/well of dilution series of test compounds were added in triplicates. […] Cells were incubated in a total volume of 50 μl at 37° C. with 5% CO2 for 2 hours, then Hoechst 33342 dye was added to a final concentration of 0.5 μg/ml to stain nuclei and further incubated for 10 min. at 37° C. with 5% CO2. Cells were washed 3 times with PBS and fixed in 100 μl of 4% paraformaldehyde in PBS for 15 min. at room temperature. After removal of the paraformaldehyde solution, cells were washed 3 times with PBS leaving 100 μl per well and the plates were sealed with foil plate seal. TMR (530-550 nm excitation/575-625 nm emission/400 ms exposure time) and Hoechst 33342 (360-370 nm excitation/420-460 nm emission/10 ms exposure time) fluorescence images were acquired using a ScanR plate imager (Olympus) with a 20× high NA objective. Four pictures were acquired per well and fluorescence channel covering ca. 1500 cells per well. The acquired image data was analysed with the ScanR image analysis software. Image analysis included detection of nuclei (Hoechst 33342 fluorescence), identification of cell-associated regions, application of a virtual channel and thresholding for rolling-ball-type background reduction, followed by application of the Sum(Mean) algorithm to measure the TMR fluorescence associated with cells as a quantitative measure for internalized TMR-hepcidin. IC50 values were calculated with the Sum(Mean) raw data using “log(inhibitor) vs. response” curve fitting of Prism 5 software (GraphPad Software Inc., version 5.02).

Another experiment has as its target T2, human Fpn (Homo sapiens, UniProt Q9NP59).
T2 construct: FLAG (C); made in house; host or cells: Pichia pastoris
T2 sequence (Q9NP59 1-571): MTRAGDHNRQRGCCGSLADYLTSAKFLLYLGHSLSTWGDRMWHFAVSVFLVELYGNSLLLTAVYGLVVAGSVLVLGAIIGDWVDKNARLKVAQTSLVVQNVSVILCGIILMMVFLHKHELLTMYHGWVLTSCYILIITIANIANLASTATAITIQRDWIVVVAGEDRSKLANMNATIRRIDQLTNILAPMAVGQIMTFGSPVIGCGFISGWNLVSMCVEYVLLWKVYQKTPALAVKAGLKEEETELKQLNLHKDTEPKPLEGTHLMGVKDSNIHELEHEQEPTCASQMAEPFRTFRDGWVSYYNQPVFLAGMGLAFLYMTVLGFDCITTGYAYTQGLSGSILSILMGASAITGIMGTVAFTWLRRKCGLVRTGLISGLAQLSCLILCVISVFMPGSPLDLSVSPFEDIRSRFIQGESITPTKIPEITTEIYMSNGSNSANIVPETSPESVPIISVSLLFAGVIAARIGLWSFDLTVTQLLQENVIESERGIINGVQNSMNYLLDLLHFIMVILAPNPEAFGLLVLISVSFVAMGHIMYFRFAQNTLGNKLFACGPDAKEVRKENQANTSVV
Briefly: Biophysical Ferroportin-Hepcidin Binding Assay (fluorescence polarization). The settings on record: average of multiple measurements; 1 μM human Fpn, 20 nM TMR-hepcidin; read-out: FP IC50. The method, then:
This biophysical assay was developed to confirm inhibition of hepcidin binding to ferroportin (Fpn) more directly. Incubation of TMR-hepcidin with purified human Fpn isolated from Pichia pastoris yeast cells expressing human Fpn with a C-terminal FLAG affinity tag (Bonaccorsi di Patti, 2014) leads to increased fluorescence polarization (FP) of the TMR-hepcidin ligand. Small molecular weight Fpn inhibitors were tested for inhibition of binding of TMR-hepcidin to Fpn, as detected by dose-dependent decrease of the TMR FP signal, as described in detail below.
8 μl of serial dilutions of test compounds were added in duplicates to reach final Fpn and TMR-hepcidin concentrations of 1 μM and 20 nM, respectively. Plates were incubated for 90 minutes at room temperature and parallel (S) and perpendicular (P) fluorescence was measured in a Synergy H1 fluorescence reader (BioTek). FP values were calculated in mP according to the following formula.

What is called IC50 is the point on the concentration scale where inhibition reaches its midpoint. For `O=C(NCc1ncccc1F)c1cccc(CCNCCc2nc3ccccc3[nH]2)c1` [Example 235], the IC50 at ferroportin (Fpn) amounted to 910 nM; on human Fpn it was 295 nM.

Regarding `CN(C)c1ccc(CNC(=O)c2csc(CCNCc3nc4ccccc4[nH]3)n2)cn1` [Example 98], the 50% inhibitory concentration (IC50) on ferroportin (Fpn) was 1850 nM; at human Fpn, 5710 nM.

For `O=C(NCc1ncccc1F)c1csc(CNCCCc2nc3ccccc3[nH]2)n1` [Example 119], the IC50 amounted to 164 nM on ferroportin (Fpn) and 5300 nM at human Fpn.

In the case of `O=C(NCCc1ccccc1)c1csc(CCNCc2nc3ccccc3[nH]2)n1` [Example 78], the IC50 at ferroportin (Fpn) was 410 nM; on human Fpn, 4150 nM.

For the compound `O=C(NCc1ccccc1)c1csc(CCNCc2nc3cc(OC(F)(F)F)ccc3[nH]2)n1` [Example 62], the IC50 was found to be 930 nM on ferroportin (Fpn) and 436 nM at human Fpn.

In the case of `O=C(NCc1ncc(F)cc1F)c1csc(CNCCCc2nc3ccccc3[nH]2)n1` [Example 124], the IC50 at ferroportin (Fpn) is 6330 nM; on human Fpn, 3500 nM.

As to `O=C(NCc1ccc(C(F)(F)F)nc1)c1csc(CCNCc2nc3ccccc3[nH]2)n1` [Example 81], the IC50 at ferroportin (Fpn) stood at 420 nM; on human Fpn, 2970 nM.

For the compound `O=C(c1csc(CCNCc2nc3ccccc3[nH]2)n1)N1CCCCC1` [compound 14], the IC50 stood at 4900 nM at ferroportin (Fpn) and 14900 nM on human Fpn.

On to `O=C(NCc1cccc(=O)[nH]1)c1csc(CCNCc2nc3ccccc3[nH]2)n1` [Example 47], for which the IC50 on ferroportin (Fpn) is 720 nM; on human Fpn, 3420 nM.

With `CN(C)c1ccccc1CNC(=O)c1csc(CCNCc2nc3ccccc3[nH]2)n1` [Example 70], the IC50 on ferroportin (Fpn) came to 530 nM; at human Fpn it was 1060 nM.

Regarding `O=C(NCc1nc2ccccc2[nH]1)c1csc(CCNCc2nc3ccccc3[nH]2)n1` [Example 60], the values for the IC50 on ferroportin (Fpn) and at human Fpn were 2390 nM and 974 nM, respectively.

As to `O=C(NCc1cccnc1)c1csc(CCNCc2nc3ccccc3[nH]2)n1` [Example 35], the 50% inhibitory concentration (IC50) on ferroportin (Fpn) is 190 nM; at human Fpn, 2160 nM.

With `O=C(NCc1ccccn1)c1csc(C2CCN(CCc3nc4ccccc4[nH]3)C2)n1` (centres unmarked) [Example 215], the IC50 was 27700 nM on ferroportin (Fpn) and 15600 nM at human Fpn.

Consider `O=C(NCc1ncccc1F)c1csc(C2CCN(CCc3nc4ccccc4[nH]3)C2)n1` (centres unmarked) [Example 214], for which the IC50 on ferroportin (Fpn) came to 14100 nM; on human Fpn, 3190 nM.

With `CC(C)(NC(=O)c1csc(CCNCc2nc3ccccc3[nH]2)n1)c1ccccc1` [Example 26], the concentration for half-maximal inhibition (IC50) worked out at 700 nM on ferroportin (Fpn) and 1120 nM at human Fpn.

As to `O=C(NCc1cccc(N2CCCC2)c1)c1csc(CCNCc2nc3ccccc3[nH]2)n1` [Example 21], the IC50 at ferroportin (Fpn) stood at 6700 nM; at human Fpn it was 1430 nM.

Take `CC(C)N(C(=O)c1csc(CCNCc2nc3ccccc3[nH]2)n1)C1CCCCC1` [Example 25]: the IC50 at ferroportin (Fpn) was found to be 2200 nM; at human Fpn, 3930 nM.

Regarding `O=C(CC(=O)NCc1ncccc1F)NCCNCCc1nc2ccccc2[nH]1` [compound 168], the concentration for half-maximal inhibition (IC50) at ferroportin (Fpn) was determined as 884 nM; on human Fpn, 1360 nM.

Consider `O=C(NCc1ncccc1F)[C@@H]1CCN(CCNCc2nc3ccccc3[nH]2)C1` [compound 204], for which the IC50 is 3300 nM at ferroportin (Fpn) and 1630 nM at human Fpn.

Take `O=C(NCc1ncccc1F)c1cnn(CC2CN(Cc3nc4ccccc4[nH]3)C2)c1` [Example 187]: the IC50 is 87000 nM on ferroportin (Fpn) and 35500 nM at human Fpn.

Consider `Cn1cc(C(=O)NCc2ncccc2F)nc1CCNCc1nc2ccccc2[nH]1` [Example 210], for which the figures for the concentration for half-maximal inhibition (IC50) at ferroportin (Fpn) and at human Fpn were 4910 nM and 1880 nM, respectively.

As for `O=C(NCc1ccccc1)c1csc(CCNCc2ncc[nH]2)n1` [Example 20], the 50% inhibitory concentration (IC50) came out at 9400 nM at ferroportin (Fpn) and 9610 nM on human Fpn.

Regarding `O=C(NCc1cccnn1)c1coc(C2CN(CCc3nc4c(F)cccc4[nH]3)C2)n1` [Example 261], the values for the IC50 at ferroportin (Fpn) and at human Fpn were 554 nM and 440 nM, respectively.

Consider `O=C(NCc1ncccc1F)c1csc(CCNc2nc3ccccc3[nH]2)n1` [Example 121], for which the half-maximal inhibitory concentration (IC50) on ferroportin (Fpn) turned out to be 473 nM; at human Fpn, 5100 nM.

With `O=C(NCc1ccccc1OC(F)(F)F)c1csc(CCNCc2nc3ccccc3[nH]2)n1` [Example 72], the concentration for half-maximal inhibition (IC50) at ferroportin (Fpn) was 1360 nM; on human Fpn, 931 nM.

On to `O=C(NCc1ccncc1)c1csc(CCNCc2nc3ccccc3[nH]2)n1` [Example 36], for which the values for the 50% inhibitory concentration (IC50) at ferroportin (Fpn) and at human Fpn were 250 nM and 3650 nM, respectively.

For `CN1CCOCC1CNC(=O)c1csc(CCNCc2nc3ccccc3[nH]2)n1` (centres unmarked) [Example 41], the IC50 on ferroportin (Fpn) came out at 3980 nM; at human Fpn it was 12000 nM.

As for `O=C(NCc1ccccc1)c1csc(CCNCc2cn3ccccc3n2)n1` [Example 34], the IC50 worked out at 360 nM at ferroportin (Fpn) and 4290 nM at human Fpn.

With `CN(CCc1nc2ccccc2[nH]1)CCc1nc(C(=O)NCc2ncccc2F)co1` [Example 223], the half-maximal inhibitory concentration (IC50) at ferroportin (Fpn) is 1900 nM; at human Fpn, 2680 nM.

Take `O=C(NCc1ncccc1F)c1ccnc(CCNCc2nc3ccccc3[nH]2)c1` [compound 222]: the figures for the half-maximal inhibitory concentration (IC50) on ferroportin (Fpn) and on human Fpn were 3400 nM and 808 nM, respectively.

Take `O=C(NCc1ccccc1)c1ccc(CCNCc2nc3ccccc3[nH]2)cc1` [Example 66]: the 50% inhibitory concentration (IC50) is 410 nM on ferroportin (Fpn) and 53800 nM on human Fpn.

Regarding `CC(NC(=O)c1csc(CCNCc2nc3ccccc3[nH]2)n1)c1ccccn1` (centres unmarked) [Example 80], the IC50 on ferroportin (Fpn) worked out at 345 nM; at human Fpn, 2280 nM.

As for `O=C(NCc1ncccc1F)c1cccc(CCNCCc2nc3c(F)cccc3[nH]2)c1` [Example 241], the values for the IC50 at ferroportin (Fpn) and on human Fpn were 2100 nM and 1650 nM, respectively.

For `NC(=O)c1ccc(CNC(=O)c2csc(CCNCc3nc4ccccc4[nH]3)n2)cn1` [Example 54], the values for the IC50 on ferroportin (Fpn) and at human Fpn were 460 nM and 11400 nM, respectively.
